In US4285942A, “Cyclododecanone oximes” (Egyt Gyogyszervegyeszeti Gyar, priority 1978, dated 1981):

What was measured:
nicotine-lethality = assay: Nicotine-lethality inhibiting effect in mice, oral (method of Stone); type: in vivo; conditions: Mus musculus, nicotine-lethality inhibition, mice, groups of ten animals
Procedure: (§1) The nicotine-lethality inhibiting effect was determined on mice by the method of Stone [C. A. Stone et al.: Arch. Intern.

[1] = tested on: ischiadic nerve (N. ischiadieus); assay: Local anaesthetizing effect on the ischiadic nerve of rats (method of Truant), Lidocaine as reference; type: in vivo; conditions: for Relative efficiency: local anaesthesia, relative to Lidocaine
Procedure: The local anaesthetizing effect was investigated on the ischiadic nerve (N. ischiadieus) of rats by the method of Truant [A. P. Truant, d'Amato cited in A. P. Truant, S. Wiedling: Acta Chirurg. Scand. 116, 351 (1958)], by using Lidocaine as the reference substance. The number of animals showing the characteristic motoric paralysis and the duration of the effect were recorded. The relative efficiency with respect to Lidocaine and the duration of the effect observed on applying a 0.25% and 0.5% concentration are presented in Table 3.

isolated rat ileum = assay: Spasmolytic effect on smooth muscle, isolated rat ileum (method of Brock), papaverine as reference; conditions: relative to papaverine
Procedure: The spasmolytic effect on smooth muscle was determined on isolated rat ileum according to the method of Brock et al. [H. Brock, J. Ceks, D. Lorenz: Arch. Exper. Path. u. Pharmacol. 215, 492/1952/] by using papaverine as the reference substance. In order to characterize the efficiency of the individual compounds their relative effect with respect to papaverine are enumerated in Table 2 below.

[2] = Nicotine-lethality inhibiting effect in mice, oral (method of Stone); type: in vivo; conditions: mouse, in vivo, LD50 and ED50 in mice, read-out: Therapeutic index
Procedure: as §1

in vivo = conditions: mouse, mice, oral

| Structure (SMILES) | ED50 (nicotine-lethality) | Duration of effect ([1]; 0.25% concentration) | Duration of effect ([1]; 0.5% concentration) | Relative efficiency [1] | Relative efficiency (isolated rat ileum) | selectivity ratio [2] | LD50 (in vivo) |
| --- | --- | --- | --- | --- | --- | --- | --- |
| OC(CCN1CCCCC1)(c1ccccc1)C1CCCCC1 (stereo not shown) [Artane, 1-cyclohexyl-1-phenyl-3-piperidino-propane-1-ol, reference compound] | 40 mg/kg | – | – | – | – | – | – |
| CCN(CC)CC(=O)Nc1c(C)cccc1C [Lidocaine, reference compound] | – | 24 min | 28 min | 1.0 | – | – | – |
| CCN(CC)CC(C)CON=C1CCCCCCCCCCC1 (stereo not shown) [Example 11, 1-(3'-Diethylamino-2'-methyl-propoxyimino)cyclododecane] | 80 mg/kg | 151 min | 240 min | 1.86 | 2.6 | 5 | 400 mg/kg |
| c1ccc(CN2CCN(CCCON=C3CCCCCCCCCCC3)CC2)cc1 [Example 6, 1-(N-Benzylpiperazinyl-propoxyimino)cyclododecane] | 180 mg/kg | 60 min | 134 min | 0.52 | 0.9 | 5 | 900 mg/kg |
| CN1CCN(CCCON=C2CCCCCCCCCCC2)CC1 [Example 7, 1-(N-methylpiperazinyl-propoxyimino)cyclododecane] | 68 mg/kg | – | – | – | – | 16.2 | 1100 mg/kg |
| COc1ccc(Cc2nccc3cc(OC)c(OC)cc23)cc1OC [Papaverine, reference compound] | – | – | – | – | 1.0 | – | – |
| CC(C)N(CCCON=C1CCCCCCCCCCC1)C(C)C [Example 12, 1-(Diisopropylamino-propoxyimino)cyclododecane] | 130 mg/kg | 77 min | 240 min | 1.68 | – | 5 | 650 mg/kg |
| CN(C)CCON=C1CCCCCCCCCCC1 [Example 2, 1-(Dimethylamino-ethoxyimino)cyclododecane] | 28 mg/kg | 23 min | 57 min | 0.67 | – | 27.9 | 780 mg/kg |
| CC(CON=C1CCCCCCCCCCC1)CN(C)C (racemic) [Example 4, D,L-1-(3'-Dimethylamino-2'-methylpropoxyimino)cyclododecane] | 46 mg/kg | 32 min | 105 min | 0.63 | 4.1 | 14.8 | 680 mg/kg |
| CN(C)CCCON=C1CCCCCCCCCCC1 [Example 1, 1-(Dimethylamino-propoxyimino)cyclododecane] | 39 mg/kg | 45 min | 95 min | 0.77 | 1.4 | 14.4 | 560 mg/kg |
| CC(C)N(CCON=C1CCCCCCCCCCC1)C(C)C [Example 5, 1-(Diisopropylamino-ethoxyimino)cyclododecane] | 10 mg/kg | 31 min | 60 min | 0.71 | – | 80 | 800 mg/kg |
| CCN(CC)CCCON=C1CCCCCCCCCCC1 [Example 10, 1-(Diethylamino-propoxyimino)cyclododecane] | – | 76 min | 104 min | 2.00 | 2.9 | – | – |
